Laboratory results reported in publication PMC10574185, “Encapsulation and Biological Activity of Hesperetin Derivatives with HP-β-CD” (Molecules, 2023).
In brackets after ≈: the same amount, converted by molar mass. Read-outs that look alike come from different tables or passages of the source.

Tests used:
[1] = DPPH assay (antioxidant activity); details: concentration 0.1 mg/mL, mean ± SD
Experimental: (§1) To evaluate the antioxidant ability of the tested systems, antioxidant analysis was performed. Antioxidants can scavenge hydroxyl radicals in two ways: by reacting directly with hydroxyl radicals (DPPH^•, ABTS^•+) or indirectly inhibiting the formation of hydroxyl radicals by chelating metal ions involved in the production of hydroxyl radicals. The antioxidant activity of the systems studied was investigated by using DPPH^• scavenging, ABTS^•+ scavenging ability, and Fe^2+-chelating ability. In this study, the antioxidant activity of pure hesperetin and its Schiff bases (HHSB, HIN, and HTSC) and HP-β-CD complexes were compared, and the positive control was Trolox.
The detailed methodology of DPPH assay was described in the previous paper by Sykuła et al..

[2] = Phase solubility studies with HP-β-CD; type: physicochemical; details: for solubility at 60 min: thermodynamic from solid
Experimental: The purpose of this part of the study was to determine the solubility of compounds of hesperetin and its Schiff bases (HHSB, HIN, and HTSC) in aqueous solution at different pHs and temperatures, and the effect of their inclusion in modified HP-β-CD on the aqueous solubility of these compounds at different pH values.
The effect of the presence of HP-β-CD at different temperatures (25, 37, and 60 °C) was determined by developing phase solubility diagrams.
In accordance with the methodology described in Section 3.4, excess amounts of each tested substance were added to aqueous solution with increasing concentration of HP-β-CD up to 16 mM, respectively, in 2 mL of 100 mM sodium acetate buffer (pH 3.6), 100 mM sodium phosphate buffer (pH 6.5) or 100 mM sodium borate buffer (pH 8.5).
Phase solubility studies were conducted according to [64] with some modifications. Excess amounts of each tested substance were added to aqueous solution with increasing concentration of HP-β-CD up to 16 mM, in 2 mL of 100 mM sodium acetate buffer (pH 3.6), 100 mM sodium phosphate buffer (pH 6.5), or 100 mM sodium borate buffer (pH 8.5), respectively. The samples were maintained in an ultrasonic bath at various temperatures (25, 37, and 60 °C) for 60 min to reach equilibrium. The aqueous solutions were then filtered through 0.45 µm acetate cellulose (CA) membrane filter and diluted. The tested compound concentration on each clear filtrate was spectrophotometrically determined by measuring at their wavelength maximum.
The complexation constant (Kc) between studied molecules and HP-β-CD was determined by using Equation (1):(1) Kc=slope/S0 (1−slope) where S0 means the water solubility of the studied substance, and “slope” means the slope of the phase solubility diagram.
Complexation efficiency was calculated from the slope of the phase solubility diagram using Equation (2):(2) CE=S0×Kc=slope/1−slope
The CE was also applied to evaluate the molar ratio in solution of tested systems using Equation (3):(3) Compound:HP−β−CD=1:(1+1/CE)

[3] = system: Staphylococcus aureus ATCC 29737; assay: Minimal inhibition concentration (dilution + diffusion-well); type: cell-based; details: ATCC29737, 37 °C, 18 h
Experimental: The MIC was performed for compounds and strains sensitive to their action in the antagonistic test. Minimum inhibitory concentration was determined by combining the dilution method with the diffusion-well method. Test compounds at a concentration of 500 μM were prepared in 5% (w/w) DMSO. Surface layer of microorganisms, against which antagonistic activity was noted, were prepared in the same way as for the antagonistic test. Then, two-fold sequential dilutions of the test compounds in the range of 500 µM to 62.5 µM were prepared. Wells with a diameter of 8 mm cut in the Mueller–Hinton Agar (Merck, Darmstadt, Germany) with the test strain were added with 50 µL of the prepared dilutions, which corresponded to the following concentrations of the tested compounds: […], 1.25 mM, 0.625 mM, and […]. Petri dishes prepared in this way were incubated at 37 °C for 18 h. After a given time, the MIC value was read. The MIC concentration expressed in µM was the first concentration of the tested compounds at which growth inhibition of the test strain was observed.

[4] = ABTS^•+ radical cation decolorization assay; details: concentration 0.1 mg/mL, mean ± SD
Experimental: as §1
Antioxidant activity using ABTS^•+ cation radical scavenging was determined according to a modified method. ABTS solution (2.5 mM) was mixed with 1.0 mM potassium persulfate solution and left at room temperature in the dark for 12-24 h. After this time, the absorbance of the finished ABTS^•+ solution was corrected with ethanol to 0.70 ± 0.02 at 745 nm. A total of 100 µL of the sample was reacted for 5 min with 2 mL of ABTS^•+ solution (A745 nm = 0.70 ± 0.02). The absorbance value of the reaction mixture was measured at 745 nm. […] Scavenging activity (%) = [1 − (Asample − Ablank)/Acontrol] × 100%(4) where Acontrol is the absorbance value of the control (ABTS^•+ solution with water), Ablank is the absorbance value of samples mixed with anhydrous ethanol, and Asample is the absorbance value of the added test sample to ABTS^•+ solution at 745 nm, respectively.

COc1ccc(C2CC(=NNC(N)=S)c3c(O)cc(O)cc3O2)cc1O (centres unmarked) [HTSC, N-[2,3-dihydro-5,7-dihydroxy-2-(3-hydroxy-4-methoxyphenyl)chromen-4-ylidene]thiosemicarbazide]
DPPH antioxidant activity [1]: 93.72 ± 6.8%
CE complexation efficiency ([2]; 25 °C, pH 3.6, with HP-β-CD): 0.07%
Kc complexation constant ([2]; 25 °C, pH 3.6, with HP-β-CD): 13 ± 2.9 M⁻¹
increase of solubility with HP-β-CD ([2]; 25 °C, pH 6.5, HP-β-CD at 16 mM): five-fold
CE complexation efficiency ([2]; 25 °C, pH 6.5, with HP-β-CD): 0.07%
Kc complexation constant ([2]; 25 °C, pH 6.5, with HP-β-CD): 11 ± 1.6 M⁻¹
CE complexation efficiency ([2]; 25 °C, pH 8.5, with HP-β-CD): 0.1%
Kc complexation constant ([2]; 25 °C, pH 8.5, with HP-β-CD): 12.5 ± 0.3 M⁻¹
CE complexation efficiency ([2]; 37 °C, pH 3.6, with HP-β-CD): 0.1%
Kc complexation constant ([2]; 37 °C, pH 3.6, with HP-β-CD): 16 ± 1.7 M⁻¹
CE complexation efficiency ([2]; 37 °C, pH 6.5, with HP-β-CD): 0.1%
Kc complexation constant ([2]; 37 °C, pH 6.5, with HP-β-CD): 16 ± 1.7 M⁻¹
CE complexation efficiency ([2]; 37 °C, pH 8.5, with HP-β-CD): 0.3%
Kc complexation constant ([2]; 37 °C, pH 8.5, with HP-β-CD): 18 ± 4.2 M⁻¹
increase of solubility with HP-β-CD ([2]; 60 °C, pH 3.6): five-fold
CE complexation efficiency ([2]; 60 °C, pH 3.6, with HP-β-CD): 0.5%
Kc complexation constant ([2]; 60 °C, pH 3.6, with HP-β-CD): 28 ± 0.3 M⁻¹
CE complexation efficiency ([2]; 60 °C, pH 6.5, with HP-β-CD): 0.04%
Kc complexation constant ([2]; 60 °C, pH 6.5, with HP-β-CD): 2.2 ± 0.6 M⁻¹
CE complexation efficiency ([2]; 60 °C, pH 8.5, with HP-β-CD): 0.1%
Kc complexation constant ([2]; 60 °C, pH 8.5, with HP-β-CD): 3.2 ± 0.6 M⁻¹
solubility at 60 min ([2]; aqueous buffer, 25 °C, pH 3.6 sodium acetate buffer, without cyclodextrin, read-out: solubility without HP-β-CD (value in brackets) (converted)): 17 µM (≈ 6.38 µg/mL)
solubility at 60 min ([2]; aqueous buffer, 25 °C, pH 6.5 sodium phosphate buffer, without cyclodextrin, read-out: solubility without HP-β-CD (value in brackets) (converted)): 11 µM (≈ 4.13 µg/mL)
solubility at 60 min ([2]; aqueous buffer, 25 °C, pH 8.5 sodium borate buffer, without cyclodextrin, read-out: solubility without HP-β-CD (value in brackets) (converted)): 20 µM (≈ 7.51 µg/mL)
solubility at 60 min ([2]; aqueous buffer, 37 °C, pH 3.6 sodium acetate buffer, without cyclodextrin, read-out: solubility without HP-β-CD (value in brackets) (converted)): 28 µM (≈ 10.5 µg/mL)
solubility at 60 min ([2]; aqueous buffer, 37 °C, pH 6.5 sodium phosphate buffer, without cyclodextrin, read-out: solubility without HP-β-CD (value in brackets) (converted)): 27 µM (≈ 10.1 µg/mL)
solubility at 60 min ([2]; aqueous buffer, 37 °C, pH 8.5 sodium borate buffer, without cyclodextrin, read-out: solubility without HP-β-CD (value in brackets) (converted)): 220 µM (≈ 82.6 µg/mL)
solubility at 60 min ([2]; aqueous buffer, 60 °C, pH 3.6 sodium acetate buffer, without cyclodextrin, read-out: solubility without HP-β-CD (value in brackets) (converted)): 37 µM (≈ 13.9 µg/mL)
solubility at 60 min ([2]; aqueous buffer, 60 °C, pH 6.5 sodium phosphate buffer, without cyclodextrin, read-out: solubility without HP-β-CD (value in brackets) (converted)): 160 µM (≈ 60.1 µg/mL)
solubility at 60 min ([2]; aqueous buffer, 60 °C, pH 8.5 sodium borate buffer, without cyclodextrin, read-out: solubility without HP-β-CD (value in brackets) (converted)): 250 µM (≈ 93.9 µg/mL)
solubility at 60 min ([2]; 25 °C, pH 3.6 sodium acetate buffer, with HP-β-CD, read-out: S0 (solubility with HP-β-CD)): 54 ± 30 µM (≈ 20.3 µg/mL)
solubility at 60 min ([2]; 25 °C, pH 6.5 sodium phosphate buffer, with HP-β-CD, read-out: S0 (solubility with HP-β-CD)): 61 ± 20 µM (≈ 22.9 µg/mL)
solubility at 60 min ([2]; 25 °C, pH 8.5 sodium borate buffer, with HP-β-CD, read-out: S0 (solubility with HP-β-CD)): 70 ± 30 µM (≈ 26.3 µg/mL)
solubility at 60 min ([2]; 37 °C, pH 3.6 sodium acetate buffer, with HP-β-CD, read-out: S0 (solubility with HP-β-CD)): 76 ± 35 µM (≈ 28.5 µg/mL)
solubility at 60 min ([2]; 37 °C, pH 6.5 sodium phosphate buffer, with HP-β-CD, read-out: S0 (solubility with HP-β-CD)): 68 ± 33 µM (≈ 25.5 µg/mL)
solubility at 60 min ([2]; 37 °C, pH 8.5 sodium borate buffer, with HP-β-CD, read-out: S0 (solubility with HP-β-CD)): 160 ± 54 µM (≈ 60.1 µg/mL)
solubility at 60 min ([2]; 60 °C, pH 3.6 sodium acetate buffer, with HP-β-CD, read-out: S0 (solubility with HP-β-CD)): 170 ± 65 µM (≈ 63.8 µg/mL)
solubility at 60 min ([2]; 60 °C, pH 6.5 sodium phosphate buffer, with HP-β-CD, read-out: S0 (solubility with HP-β-CD)): 180 ± 60 µM (≈ 67.6 µg/mL)
solubility at 60 min ([2]; 60 °C, pH 8.5 sodium borate buffer, with HP-β-CD, read-out: S0 (solubility with HP-β-CD)): 270 ± 89 µM (≈ 101 µg/mL)
MIC [3]: 2.5 µM
ABTS^•+ antioxidant activity [4]: 86.61 ± 4.6%
